Experimental data as given in US10993951B2, “Fosfomycin formulation for parenteral administration” (priority 2016, dated 2021).
≈ marks a conversion by molar mass, not a printed value. Where two headings read alike, the source gives them in different places.

Tests used:
Assay in all cases: MIC by tube dilution in microtiter plates, stored fosfomycin solution
Format in all cases: cell-based
Settings in all cases: read-out: minimal inhibitory concentration (MIC)
[1] = test system: Staphylococcus hominis AG 1115
[2] = test system: Staphylococcus aureus ATTC 49775
Escherichia coli AG 1215 [3] = test system: Escherichia coli AG 1215
[4] = test system: Staphylococcus hominis AG 1115; remark: listed apart in the source
Text: (§1) The objective of the present investigation was to find out whether the antimicrobial activity of fosfomycin with a pH suitable for intravenous administration is maintained in a solvent suitable for intravenous use. For this, fosfomycin disodium (14.5 mmol sodium/g) and succinic acid were used to adjust the pH (0.025 grams of succinic acid per gram of fosfomycin).
(§2) A stock solution of 4 g of fosfomycin disodium and succinic acid (0.025 grams of succinic acid per gram of fosfomycin, corresponding to about 3 g of fosfomycin) in 10 ml distilled water was prepared and divided into 5 cryotubes at 2 ml each, and the solution was exposed at different temperatures as follows:
(§3) Aliquots of 2 ml of the sample were stored at −80° C., at refrigerator temperature (2-8° C.), at room temperature (20-25° C.), and at 45-65° C. until the test end. Another 2 ml of the stock solution were stored at refrigerator temperature (2-8° C.) and autoclaved before the tests at 125° C. for 30 minutes. After that, all samples were tested for their antimicrobioal activity.
(§4) To determine the antimicrobial activity of fosfomycin, the minimal inhibitory concentration (MIC) of the 4 mentioned bacteria strains was determined by a tube dilution method in microtiter plates using Mueller-Hinton broth. For the inoculation of the microtiter plates, the inoculum was adjusted to 1.5×104 germs/ml. The evaluation was made after 24 hours of incubation at 37° C.
(§5) Samples were taken, starting with 2,000 μg/ml test substance, diluted by a factor 2. Serial dilutions of 2,000 μg/ml to […] were prepared.

Escherichia coli AG 1215 [5] = test system: Escherichia coli AG 1215; remark: listed apart in the source
Text: as §1, §2, §3, §4, §5

- MIC ([1]; AG1115, 648 h, storage temp. 4-8 °C, storage period 27 days): 15.6 µg/mL (≈ 113 µM)
- MIC ([1]; AG1115, storage temp. 4-8 °C, storage period 64 days): 15.6 µg/mL (≈ 113 µM)
- MIC ([1]; AG1115, storage temp. 4-8 °C, storage period 92 days): 15.6 µg/mL (≈ 113 µM)
- MIC ([2]; ATTC49775, 0 h, storage temp. 4-8 °C, storage period 0 days): 7.8 µg/mL (≈ 56.5 µM)
- MIC ([2]; ATTC49775, 456 h, storage temp. 4-8 °C, storage period 19 days): 3.9 µg/mL (≈ 28.2 µM)
- MIC ([2]; ATTC49775, storage temp. 4-8 °C, storage period 31 days): 3.9 µg/mL (≈ 28.2 µM)
- MIC (Escherichia coli AG 1215 [3]; AG1215, 648 h, storage temp. 4-8 °C, storage period 27 days): 62.5 µg/mL (≈ 453 µM)
- MIC (Escherichia coli AG 1215 [3]; AG1215, storage temp. 4-8 °C, storage period 59 days): 62.5 µg/mL (≈ 453 µM)
- MIC (Escherichia coli AG 1215 [3]; AG1215, storage temp. 4-8 °C, storage period 64 days): 15.6 µg/mL (≈ 113 µM)
- MIC ([4]; AG1115, 125 °C (refrigerator storage, autoclaved 30 minutes before tests), storage period 27 days): 15.6 µg/mL (≈ 113 µM)
- MIC ([4]; AG1115, 125 °C (refrigerator storage, autoclaved 30 minutes before tests), storage period 31 days): 7.8 µg/mL (≈ 56.5 µM)
- MIC ([4]; AG1115, 125 °C (refrigerator storage, autoclaved 30 minutes before tests), storage period 54 days): 7.8 µg/mL (≈ 56.5 µM)
- MIC ([4]; AG1115, 125 °C (refrigerator storage, autoclaved 30 minutes before tests), storage period 59 days): 15.6 µg/mL (≈ 113 µM)
- MIC ([4]; AG1115, 125 °C (refrigerator storage, autoclaved 30 minutes before tests), storage period 64 days): 31.2 µg/mL (≈ 226 µM)
- MIC ([4]; AG1115, 125 °C (refrigerator storage, autoclaved 30 minutes before tests), storage period 92 days): 31.2 µg/mL (≈ 226 µM)
- MIC ([4]; AG1115, 648 h, storage temp. 20-25 °C, storage period 27 days): 31.2 µg/mL (≈ 226 µM)
- MIC ([4]; AG1115, 648 h, storage temp. 45-65 °C, storage period 27 days): 15.6 µg/mL (≈ 113 µM)
- MIC ([4]; AG1115, 648 h, storage temp. −80 °C, storage period 27 days): 7.8 µg/mL (≈ 56.5 µM)
- MIC ([4]; AG1115, storage temp. 4-8 °C, storage period 31 days): 7.8 µg/mL (≈ 56.5 µM)
- MIC ([4]; AG1115, storage temp. 4-8 °C, storage period 54 days): 7.8 µg/mL (≈ 56.5 µM)
- MIC ([4]; AG1115, storage temp. 4-8 °C, storage period 59 days): 15.6 µg/mL (≈ 113 µM)
- MIC ([4]; AG1115, storage temp. 20-25 °C, storage period 31 days): 7.8 µg/mL (≈ 56.5 µM)
- MIC ([4]; AG1115, storage temp. 20-25 °C, storage period 54 days): 15.6 µg/mL (≈ 113 µM)
- MIC ([4]; AG1115, storage temp. 20-25 °C, storage period 59 days): 7.8 µg/mL (≈ 56.5 µM)
- MIC ([4]; AG1115, storage temp. 20-25 °C, storage period 64 days): 31.2 µg/mL (≈ 226 µM)
- MIC ([4]; AG1115, storage temp. 20-25 °C, storage period 92 days): 62.5 µg/mL (≈ 453 µM)
- MIC ([4]; AG1115, storage temp. 45-65 °C, storage period 31 days): 3.9 µg/mL (≈ 28.2 µM)
- MIC ([4]; AG1115, storage temp. 45-65 °C, storage period 54 days): 15.6 µg/mL (≈ 113 µM)
- MIC ([4]; AG1115, storage temp. 45-65 °C, storage period 59 days): 15.6 µg/mL (≈ 113 µM)
- MIC ([4]; AG1115, storage temp. 45-65 °C, storage period 64 days): 15.6 µg/mL (≈ 113 µM)
- MIC ([4]; AG1115, storage temp. 45-65 °C, storage period 92 days): 62.5 µg/mL (≈ 453 µM)
- MIC ([4]; AG1115, storage temp. −80 °C, storage period 31 days): 7.8 µg/mL (≈ 56.5 µM)
- MIC ([4]; AG1115, storage temp. −80 °C, storage period 54 days): 7.8 µg/mL (≈ 56.5 µM)
- MIC ([4]; AG1115, storage temp. −80 °C, storage period 59 days): 15.6 µg/mL (≈ 113 µM)
- MIC ([4]; AG1115, storage temp. −80 °C, storage period 64 days): 15.6 µg/mL (≈ 113 µM)
- MIC ([4]; AG1115, storage temp. −80 °C, storage period 92 days): 15.6 µg/mL (≈ 113 µM)
- MIC (Escherichia coli AG 1215 [5]; AG1215, 0 h, storage temp. 4-8 °C, storage period 0 days): 62.5 µg/mL (≈ 453 µM)
- MIC (Escherichia coli AG 1215 [5]; AG1215, 0 h, storage temp. 20-25 °C, storage period 0 days): 250 µg/mL (≈ 1810 µM)
- MIC (Escherichia coli AG 1215 [5]; AG1215, 0 h, storage temp. 45-65 °C, storage period 0 days): 62.5 µg/mL (≈ 453 µM)
- MIC (Escherichia coli AG 1215 [5]; AG1215, 0 h, storage temp. −80 °C, storage period 0 days): 62.5 µg/mL (≈ 453 µM)
- MIC (Escherichia coli AG 1215 [5]; AG1215, 125 °C (refrigerator storage, autoclaved 30 minutes before tests), storage period 0 days): 125 µg/mL (≈ 905 µM)
- MIC (Escherichia coli AG 1215 [5]; AG1215, 125 °C (refrigerator storage, autoclaved 30 minutes before tests), storage period 19 days): 125 µg/mL (≈ 905 µM)
- MIC (Escherichia coli AG 1215 [5]; AG1215, 125 °C (refrigerator storage, autoclaved 30 minutes before tests), storage period 27 days): 62.5 µg/mL (≈ 453 µM)
- MIC (Escherichia coli AG 1215 [5]; AG1215, 125 °C (refrigerator storage, autoclaved 30 minutes before tests), storage period 59 days): 31.2 µg/mL (≈ 226 µM)
- MIC (Escherichia coli AG 1215 [5]; AG1215, 125 °C (refrigerator storage, autoclaved 30 minutes before tests), storage period 64 days): 62.5 µg/mL (≈ 453 µM)
Compound: C[C@@H]1O[C@@H]1P(=O)(O)O [Fosfomycin, fosfomycin]
